Laboratory results: patent US9050285B2, “Recombinant bacterium capable of eliciting an immune response against Streptococcus pneumoniae” (The United States of America National Institutes of Health …, priority 2008, dated 2015)

Tests used:
Assay type in all cases: cell-based
χ9640(pYA4088) = assay: Minimum inhibitory concentrations of antibiotics for RASV-Sp strain χ9640(pYA4088); details: Salmonella Typhi strain χ9640(pYA4088); for MIC: Salmonella enterica, read-out: Minimum inhibitory concentration
From the text: (§1) Master seed and working seed banks of each vaccine organism in separate vials have been prepared for frozen storage in vegetable-based cryopreservative. […] Antibiotic sensitivity testing has confirmed that these strains are sensitive to ciprofloxacin, ampicillin, ceftriaxone, trimethoprim/sulfamethoxazole (Table 13). Ampicillin, ciprofloxacin, ceftriaxone and trimethoprim/sulfamethoxazole are typically tested for minimum inhibitory concentrations (MICs) for Salmonella.

χ9639(pYA4088) = assay: Minimum inhibitory concentrations of antibiotics for RASV-Sp strain χ9639(pYA4088); details: Salmonella Typhi strain χ9639(pYA4088); for MIC: Salmonella enterica, read-out: Minimum inhibitory concentration
From the text: as §1

χ9633(pYA4088) = assay: Minimum inhibitory concentrations of antibiotics for RASV-Sp strain χ9633(pYA4088); details: Salmonella Typhi strain χ9633(pYA4088)
From the text: as §1

Question: Which results are given for `CC1(C)S[C@@H]2[C@H](NC(=O)[C@H](N)c3ccccc3)C(=O)N2[C@H]1C(=O)O` [ampicillin]?
Answer: MIC (χ9640(pYA4088)): < 2 µg/mL; MIC (χ9639(pYA4088)): < 2 µg/mL

Question: For `CO/N=C(\C(=O)N[C@@H]1C(=O)N2C(C(=O)O)=C(CSc3nc(=O)c(=O)[nH]n3C)CS[C@H]12)c1csc(N)n1` [ceftriaxone], which MIC (χ9640(pYA4088)) is on record?
Answer: Its MIC is less than 1 µg/mL.

Question: What about the MIC (χ9639(pYA4088)) of the same compound?
Answer: The MIC was less than 1 µg/mL.

Question: For `O=C(O)c1cn(C2CC2)c2cc(N3CCNCC3)c(F)cc2c1=O` [ciprofloxacin], which MIC (χ9640(pYA4088)) is on record?
Answer: The MIC was less than 0.25 µg/mL.

Question: What about the MIC (χ9639(pYA4088)) of the same compound?
Answer: Its MIC is less than 0.25 µg/mL.

Question: What does the source list for trimethroprim-sulfamethoxazole?
Answer: Minimum inhibitory concentration (χ9640(pYA4088)): <20 µg/mL; Minimum inhibitory concentration (χ9633(pYA4088)): <20 µg/mL; Minimum inhibitory concentration (χ9639(pYA4088)): <20 µg/mL
